In the first test the target is T1, Calcitonin receptor (Homo sapiens, UniProt P30988). Also: in other assays of this panel Not Active means under 50% inhibition at 10 µM.
T1 sequence (P30988 whole entry): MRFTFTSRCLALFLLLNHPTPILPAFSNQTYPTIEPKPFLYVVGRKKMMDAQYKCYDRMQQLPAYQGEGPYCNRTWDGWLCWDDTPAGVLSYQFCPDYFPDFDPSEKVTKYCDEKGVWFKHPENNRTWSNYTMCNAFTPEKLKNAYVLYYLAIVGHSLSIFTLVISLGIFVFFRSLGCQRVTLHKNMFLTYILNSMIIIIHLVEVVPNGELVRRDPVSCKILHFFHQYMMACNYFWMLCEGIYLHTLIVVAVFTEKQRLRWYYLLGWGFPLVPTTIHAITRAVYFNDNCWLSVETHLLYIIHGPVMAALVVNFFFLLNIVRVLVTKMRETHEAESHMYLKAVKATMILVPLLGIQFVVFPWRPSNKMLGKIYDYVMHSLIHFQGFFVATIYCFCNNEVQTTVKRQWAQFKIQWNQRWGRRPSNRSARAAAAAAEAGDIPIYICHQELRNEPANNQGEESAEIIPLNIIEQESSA
Assay: not given
Type of test: cell membranes, Membrane. Conditions: t47d.
Sequence of Beta-3 adrenergic receptor (P13945 whole entry): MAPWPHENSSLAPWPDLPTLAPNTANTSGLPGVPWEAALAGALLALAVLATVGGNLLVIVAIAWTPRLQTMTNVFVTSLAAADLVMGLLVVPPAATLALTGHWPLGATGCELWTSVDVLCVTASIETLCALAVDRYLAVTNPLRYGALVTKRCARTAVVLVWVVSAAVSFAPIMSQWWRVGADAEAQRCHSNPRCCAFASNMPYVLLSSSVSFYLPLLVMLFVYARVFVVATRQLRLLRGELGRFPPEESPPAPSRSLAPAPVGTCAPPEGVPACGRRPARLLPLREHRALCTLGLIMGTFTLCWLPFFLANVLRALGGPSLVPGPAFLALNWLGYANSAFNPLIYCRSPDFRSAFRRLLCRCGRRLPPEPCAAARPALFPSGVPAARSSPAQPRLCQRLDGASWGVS
Sequence of Prostaglandin G/H synthase 1 (P23219 whole entry): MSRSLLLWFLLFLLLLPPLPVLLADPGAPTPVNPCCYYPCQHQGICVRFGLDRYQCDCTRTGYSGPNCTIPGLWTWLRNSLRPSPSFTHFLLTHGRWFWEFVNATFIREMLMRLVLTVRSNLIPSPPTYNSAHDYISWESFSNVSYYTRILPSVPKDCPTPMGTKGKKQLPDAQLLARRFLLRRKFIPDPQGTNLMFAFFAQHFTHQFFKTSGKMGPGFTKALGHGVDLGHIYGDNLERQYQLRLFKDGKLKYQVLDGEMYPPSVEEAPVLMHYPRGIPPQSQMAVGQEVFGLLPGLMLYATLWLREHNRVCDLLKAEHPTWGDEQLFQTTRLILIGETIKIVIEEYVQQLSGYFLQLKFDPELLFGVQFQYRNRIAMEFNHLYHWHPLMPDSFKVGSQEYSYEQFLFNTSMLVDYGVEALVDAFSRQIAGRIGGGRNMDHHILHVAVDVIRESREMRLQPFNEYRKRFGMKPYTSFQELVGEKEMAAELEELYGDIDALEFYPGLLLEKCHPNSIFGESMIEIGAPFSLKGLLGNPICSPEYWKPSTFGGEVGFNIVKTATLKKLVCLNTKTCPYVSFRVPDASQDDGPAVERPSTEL
Sequence of Epidermal growth factor receptor (P00533 whole entry): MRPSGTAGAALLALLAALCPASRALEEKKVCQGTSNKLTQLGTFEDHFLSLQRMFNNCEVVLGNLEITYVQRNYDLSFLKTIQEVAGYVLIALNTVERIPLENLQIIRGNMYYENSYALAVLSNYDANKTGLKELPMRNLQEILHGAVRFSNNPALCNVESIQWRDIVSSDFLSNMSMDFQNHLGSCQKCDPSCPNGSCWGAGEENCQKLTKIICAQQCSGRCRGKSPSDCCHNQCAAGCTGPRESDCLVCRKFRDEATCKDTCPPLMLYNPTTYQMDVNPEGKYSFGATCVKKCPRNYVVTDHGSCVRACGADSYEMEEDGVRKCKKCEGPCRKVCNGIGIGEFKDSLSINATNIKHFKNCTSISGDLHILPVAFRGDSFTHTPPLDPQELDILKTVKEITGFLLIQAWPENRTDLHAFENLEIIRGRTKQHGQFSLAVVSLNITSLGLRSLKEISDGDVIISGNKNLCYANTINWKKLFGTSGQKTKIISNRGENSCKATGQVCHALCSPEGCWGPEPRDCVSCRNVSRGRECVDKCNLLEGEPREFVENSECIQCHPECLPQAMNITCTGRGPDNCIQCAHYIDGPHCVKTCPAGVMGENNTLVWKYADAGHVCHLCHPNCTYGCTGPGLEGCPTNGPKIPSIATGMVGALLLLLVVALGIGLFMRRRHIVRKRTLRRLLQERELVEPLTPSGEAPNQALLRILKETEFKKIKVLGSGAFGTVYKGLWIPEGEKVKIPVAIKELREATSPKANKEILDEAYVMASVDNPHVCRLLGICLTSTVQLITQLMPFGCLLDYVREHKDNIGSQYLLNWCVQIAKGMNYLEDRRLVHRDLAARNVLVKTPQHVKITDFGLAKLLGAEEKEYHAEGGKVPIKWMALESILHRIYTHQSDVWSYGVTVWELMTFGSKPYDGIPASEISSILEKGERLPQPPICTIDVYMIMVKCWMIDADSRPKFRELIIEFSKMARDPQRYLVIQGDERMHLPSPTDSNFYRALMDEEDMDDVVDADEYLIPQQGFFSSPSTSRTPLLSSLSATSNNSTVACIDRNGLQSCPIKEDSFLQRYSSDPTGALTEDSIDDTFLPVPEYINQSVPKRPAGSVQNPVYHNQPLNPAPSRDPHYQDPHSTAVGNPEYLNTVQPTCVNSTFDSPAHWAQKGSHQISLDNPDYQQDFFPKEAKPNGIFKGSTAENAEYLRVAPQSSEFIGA
In the case of `CC(=O)S[C@@H]1CC2=CC(=O)CC[C@]2(C)[C@H]2CC[C@@]3(C)[C@@H](CC[C@@]34CCC(=O)O4)[C@H]12` [SPIRONOLACTONE], the IC50 result is reported as “Not Active”.
On the same count and under the same terms, in the case of `CC(CCc1ccccc1)NCC(O)c1ccc(O)c(C(N)=O)c1` (stereo not given) [LABETALOL] it was “Not Active”.

Test system in the next test: not listed separately
Put plainly: DRUGMATRIX: Sodium/nucleoside co-transporter radioligand binding (ligand: nitrobenzylthioinosine). Type of test: cell membranes, Cavia porcellus, Dunkin-Hartley, Cerebral cortex, Membrane. Conditions: Not Active = under 50% inhibition at 10 µM.
For the molecule `CC(=O)S[C@@H]1CC2=CC(=O)CC[C@]2(C)[C@H]2CC[C@@]3(C)[C@@H](CC[C@@]34CCC(=O)O4)[C@H]12` [SPIRONOLACTONE], the IC50 entry is “Not Active” and the Ki result is listed as “Not Active”.
Take `CC(CCc1ccccc1)NCC(O)c1ccc(O)c(C(N)=O)c1` (stereo not given) [LABETALOL]: the IC50 result is listed as “Not Active” and the Ki result is given as “Not Active”.

For another test, the target named is Protein kinase C alpha type (Homo sapiens, UniProt P17252).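 Also: inhibition of PKCalpha kinase activity measured in an enzyme assay with histone as the phosphorylation substrate; in other assays of this panel Not Active means under 50% inhibition at 10 µM.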
Assay: not given
Type of test: cell-based. Conditions: sf9.
For `CC(=O)S[C@@H]1CC2=CC(=O)CC[C@]2(C)[C@H]2CC[C@@]3(C)[C@@H](CC[C@@]34CCC(=O)O4)[C@H]12` [SPIRONOLACTONE], the IC50 entry is recorded as “Not Active”.
On to `CC(CCc1ccccc1)NCC(O)c1ccc(O)c(C(N)=O)c1` (stereo not given) [LABETALOL], for which the IC50 result is “Not Active”.

The next test addresses Epidermal growth factor receptor (Homo sapiens, UniProt P00533). Kind of test: DRUGMATRIX: Protein Tyrosine Kinase, EGF Receptor enzyme inhibition (substrate: Poly(Glu:Tyr)). Type of test: cell-based, Insect cells. Conditions: insect cells; Not Active = under 50% inhibition at 10 µM.
`CC(=O)S[C@@H]1CC2=CC(=O)CC[C@]2(C)[C@H]2CC[C@@]3(C)[C@@H](CC[C@@]34CCC(=O)O4)[C@H]12` [SPIRONOLACTONE]: the IC50 result is listed as “Not Active”.
Same read-out and setting: for `CC(CCc1ccccc1)NCC(O)c1ccc(O)c(C(N)=O)c1` (stereo not given) [LABETALOL] the value was “Not Active”.

In another test the target is T2, Alpha-1A adrenergic receptor (Rattus norvegicus, UniProt P43140).
T2 sequence (P43140 whole entry): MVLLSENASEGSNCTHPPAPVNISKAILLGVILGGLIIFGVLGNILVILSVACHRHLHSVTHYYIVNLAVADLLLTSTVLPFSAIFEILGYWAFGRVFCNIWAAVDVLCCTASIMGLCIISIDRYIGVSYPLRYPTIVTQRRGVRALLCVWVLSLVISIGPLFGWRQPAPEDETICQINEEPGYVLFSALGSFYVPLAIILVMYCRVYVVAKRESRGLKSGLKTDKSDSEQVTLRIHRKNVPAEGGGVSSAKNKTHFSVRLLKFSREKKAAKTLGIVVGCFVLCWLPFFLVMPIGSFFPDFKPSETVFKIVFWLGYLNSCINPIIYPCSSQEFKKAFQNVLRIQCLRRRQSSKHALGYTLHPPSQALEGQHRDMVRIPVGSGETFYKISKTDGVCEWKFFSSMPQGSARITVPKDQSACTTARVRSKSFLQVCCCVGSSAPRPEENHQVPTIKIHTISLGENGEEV
Put plainly: DRUGMATRIX: Alpha-1A adrenergic receptor radioligand binding (ligand: prazosin). Format: cell membranes, Wistar, Submaxillary gland, Membrane. Conditions: Not Active = under 50% inhibition at 10 µM.
As to `CC(=O)S[C@@H]1CC2=CC(=O)CC[C@]2(C)[C@H]2CC[C@@]3(C)[C@@H](CC[C@@]34CCC(=O)O4)[C@H]12` [SPIRONOLACTONE], the IC50 entry was “Not Active”.

Staying with this test, now noted: Not Active = under 50% inhibition at 10 µM; read-out: IC50.
Consider `CC(CCc1ccccc1)NCC(O)c1ccc(O)c(C(N)=O)c1` (stereo not given) [LABETALOL], for which the IC50 amounted to 57 nM.

Still in this test, the particulars now being: Not Active = under 50% inhibition at 10 µM; read-out: Ki.
Take `CC(CCc1ccccc1)NCC(O)c1ccc(O)c(C(N)=O)c1` (stereo not given) [LABETALOL]: the Ki came to 23 nM.

Test system in a further test: not listed separately
Kind of test: DRUGMATRIX: Phosphodiesterase PDE4 enzyme inhibition (substrate: [3H]cAMP + cAMP). Conditions: u-937; Not Active = under 50% inhibition at 10 µM.
As for `CC(=O)S[C@@H]1CC2=CC(=O)CC[C@]2(C)[C@H]2CC[C@@]3(C)[C@@H](CC[C@@]34CCC(=O)O4)[C@H]12` [SPIRONOLACTONE], the IC50 result is on record as “Not Active” and the Ki result was “Not Active”.
Take `CC(CCc1ccccc1)NCC(O)c1ccc(O)c(C(N)=O)c1` (stereo not given) [LABETALOL]: the IC50 result is on record as “Not Active” and the Ki result is “Not Active”.

The next test has as its target Beta-3 adrenergic receptor (Homo sapiens, UniProt P13945). Put plainly: DRUGMATRIX: Adrenergic beta3 radioligand binding (ligand: [125I] Cyanopindolol). Format: cell membranes, HEK293, Membrane. Conditions: hek293; Not Active = under 50% inhibition at 10 µM.
As for `CC(=O)S[C@@H]1CC2=CC(=O)CC[C@]2(C)[C@H]2CC[C@@]3(C)[C@@H](CC[C@@]34CCC(=O)O4)[C@H]12` [SPIRONOLACTONE], the IC50 entry was “Not Active”.
Same read-out and setting: for `CC(CCc1ccccc1)NCC(O)c1ccc(O)c(C(N)=O)c1` (stereo not given) [LABETALOL] the value was “Not Active”.

The target of the next test is T3, Alpha-1D adrenergic receptor (Homo sapiens, UniProt P25100). Also: in other assays of this panel Not Active means under 50% inhibition at 10 µM.
T3 sequence (P25100 whole entry): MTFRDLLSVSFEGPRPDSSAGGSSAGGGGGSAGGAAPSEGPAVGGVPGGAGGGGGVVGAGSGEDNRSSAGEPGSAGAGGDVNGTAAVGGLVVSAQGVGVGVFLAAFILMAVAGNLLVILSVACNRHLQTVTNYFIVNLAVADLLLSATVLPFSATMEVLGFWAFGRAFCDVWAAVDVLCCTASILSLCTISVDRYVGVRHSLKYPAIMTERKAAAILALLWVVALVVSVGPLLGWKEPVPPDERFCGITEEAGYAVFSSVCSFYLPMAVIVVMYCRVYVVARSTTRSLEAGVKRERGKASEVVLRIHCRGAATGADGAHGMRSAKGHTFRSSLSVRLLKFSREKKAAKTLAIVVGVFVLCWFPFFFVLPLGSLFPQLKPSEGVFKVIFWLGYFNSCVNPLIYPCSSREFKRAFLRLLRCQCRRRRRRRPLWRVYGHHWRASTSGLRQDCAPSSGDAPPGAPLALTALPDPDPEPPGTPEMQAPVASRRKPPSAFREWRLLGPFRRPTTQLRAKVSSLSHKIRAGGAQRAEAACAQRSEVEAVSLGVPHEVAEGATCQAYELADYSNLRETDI
Assay: not given
Conditions: hek293. Type of test: cell membranes, HEK293, Membrane.
Take `CC(=O)S[C@@H]1CC2=CC(=O)CC[C@]2(C)[C@H]2CC[C@@]3(C)[C@@H](CC[C@@]34CCC(=O)O4)[C@H]12` [SPIRONOLACTONE]: the IC50 entry was “Not Active”.

The test is the same for the next values; noted with them: read-out: IC50.
For the molecule `CC(CCc1ccccc1)NCC(O)c1ccc(O)c(C(N)=O)c1` (stereo not given) [LABETALOL], the IC50 was determined as 521 nM.

Staying with this test, now noted: read-out: Ki.
Turning to `CC(CCc1ccccc1)NCC(O)c1ccc(O)c(C(N)=O)c1` (stereo not given) [LABETALOL], the inhibition constant (Ki) was found to be 256 nM.

The target of another test is T4, D(4) dopamine receptor (Homo sapiens, UniProt P21917).
T4 sequence (P21917 whole entry): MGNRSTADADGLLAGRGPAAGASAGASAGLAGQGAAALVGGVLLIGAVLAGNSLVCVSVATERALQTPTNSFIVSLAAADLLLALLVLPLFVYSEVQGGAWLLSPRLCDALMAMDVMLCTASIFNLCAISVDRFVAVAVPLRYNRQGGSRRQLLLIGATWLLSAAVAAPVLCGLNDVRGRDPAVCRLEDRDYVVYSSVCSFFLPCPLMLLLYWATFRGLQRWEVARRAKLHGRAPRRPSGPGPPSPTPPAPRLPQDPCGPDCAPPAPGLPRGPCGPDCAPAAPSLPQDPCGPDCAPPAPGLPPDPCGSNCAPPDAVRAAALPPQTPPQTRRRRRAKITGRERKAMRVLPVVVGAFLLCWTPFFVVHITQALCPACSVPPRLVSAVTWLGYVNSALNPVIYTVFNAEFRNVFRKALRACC
Put plainly: DRUGMATRIX: Dopamine D4.2 radioligand binding (ligand: [3H] Spiperone). Format: cell membranes, CHO-K1, Membrane. Conditions: cho-k1; Not Active = under 50% inhibition at 10 µM.
`CC(=O)S[C@@H]1CC2=CC(=O)CC[C@]2(C)[C@H]2CC[C@@]3(C)[C@@H](CC[C@@]34CCC(=O)O4)[C@H]12` [SPIRONOLACTONE]: the half-inhibitory concentration (IC50) result is listed as “Not Active”.
On the same count and under the same terms, in the case of `CC(CCc1ccccc1)NCC(O)c1ccc(O)c(C(N)=O)c1` (stereo not given) [LABETALOL] it was “Not Active”.

The target of another test is T5, Cathepsin G (Homo sapiens, UniProt P08311).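 Also: inhibition of Cathepsin G enzyme activity, tested on an AMC-conjugated peptide substrate; in other assays of this panel Not Active means under 50% inhibition at 10 µM.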
T5 sequence (P08311 whole entry): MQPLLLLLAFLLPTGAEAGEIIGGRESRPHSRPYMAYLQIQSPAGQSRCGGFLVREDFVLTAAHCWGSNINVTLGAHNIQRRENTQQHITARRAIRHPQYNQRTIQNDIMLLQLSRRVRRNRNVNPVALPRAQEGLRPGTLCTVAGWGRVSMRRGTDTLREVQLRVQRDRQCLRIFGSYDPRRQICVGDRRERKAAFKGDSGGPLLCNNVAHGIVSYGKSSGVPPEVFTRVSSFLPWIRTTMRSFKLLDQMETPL
Assay: not given
Format: tissue-based. Conditions: neutrophil.
For `CC(=O)S[C@@H]1CC2=CC(=O)CC[C@]2(C)[C@H]2CC[C@@]3(C)[C@@H](CC[C@@]34CCC(=O)O4)[C@H]12` [SPIRONOLACTONE], the IC50 entry is “Not Active”.
On the same count and under the same terms, for `CC(CCc1ccccc1)NCC(O)c1ccc(O)c(C(N)=O)c1` (stereo not given) [LABETALOL] the value was “Not Active”.

The next test has as its target Glycine receptor (Rattus norvegicus, UniProt P22771+P24524+P07727+P20781). Also: in other assays of this panel Not Active means under 50% inhibition at 10 µM.
Assay: not given
Format: cell membranes, Wistar, Spinal cord, Membrane.
Details: not given
In the case of `CC(=O)S[C@@H]1CC2=CC(=O)CC[C@]2(C)[C@H]2CC[C@@]3(C)[C@@H](CC[C@@]34CCC(=O)O4)[C@H]12` [SPIRONOLACTONE], the IC50 result was “Not Active”.
As for `CC(CCc1ccccc1)NCC(O)c1ccc(O)c(C(N)=O)c1` (stereo not given) [LABETALOL], the IC50 entry is recorded as “Not Active”.

The next test addresses Prostaglandin G/H synthase 1 (Homo sapiens, UniProt P23219). Put plainly: biochemical. Type of test: tissue-based, Platelet. Conditions: platelet.
Turning to `CC(=O)S[C@@H]1CC2=CC(=O)CC[C@]2(C)[C@H]2CC[C@@]3(C)[C@@H](CC[C@@]34CCC(=O)O4)[C@H]12` [SPIRONOLACTONE], the IC50 entry is on record as “Not Active”.
On the same count and under the same terms, for `CC(CCc1ccccc1)NCC(O)c1ccc(O)c(C(N)=O)c1` (stereo not given) [LABETALOL] the value was “Not Active”.

One may read the IC50 as the concentration that inhibits the measured activity by half. In general, Ki refers to the dissociation constant of the complex between target and ligand, obtained from inhibition or displacement.

Values taken from ChEMBL document CHEMBL1909046, “DrugMatrix in vitro pharmacology data”.
